Source: ChEMBL document CHEMBL1137763, “Cyclobutane-containing peptides: evaluation as novel metallocarboxypeptidase inhibitors and modelling of their mode of action” (Bioorg Med Chem, 2009)

What was measured:
Carboxypeptidase B = target: T1, Carboxypeptidase B (Homo sapiens, UniProt P15086); experiment: Inhibition of human recombinant carboxypeptidase B expressed in Saccharomyces cerevisiae by microtiter plate method
T1 sequence (P15086 whole entry): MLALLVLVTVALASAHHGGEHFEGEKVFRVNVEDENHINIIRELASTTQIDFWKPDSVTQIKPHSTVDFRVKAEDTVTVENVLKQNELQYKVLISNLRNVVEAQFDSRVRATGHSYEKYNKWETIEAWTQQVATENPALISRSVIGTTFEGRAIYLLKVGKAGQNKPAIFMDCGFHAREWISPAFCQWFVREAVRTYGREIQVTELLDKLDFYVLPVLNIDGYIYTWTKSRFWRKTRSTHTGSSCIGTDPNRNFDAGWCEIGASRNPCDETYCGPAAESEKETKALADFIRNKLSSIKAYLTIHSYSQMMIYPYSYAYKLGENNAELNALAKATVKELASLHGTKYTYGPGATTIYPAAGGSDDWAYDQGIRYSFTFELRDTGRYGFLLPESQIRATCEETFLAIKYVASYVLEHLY

Carboxypeptidase A1 = target: T2, Carboxypeptidase A1 (Bos taurus, UniProt P00730); experiment: Inhibition of bovine pancreatic carboxypeptidase A by microtiter plate method
T2 sequence (P00730 whole entry): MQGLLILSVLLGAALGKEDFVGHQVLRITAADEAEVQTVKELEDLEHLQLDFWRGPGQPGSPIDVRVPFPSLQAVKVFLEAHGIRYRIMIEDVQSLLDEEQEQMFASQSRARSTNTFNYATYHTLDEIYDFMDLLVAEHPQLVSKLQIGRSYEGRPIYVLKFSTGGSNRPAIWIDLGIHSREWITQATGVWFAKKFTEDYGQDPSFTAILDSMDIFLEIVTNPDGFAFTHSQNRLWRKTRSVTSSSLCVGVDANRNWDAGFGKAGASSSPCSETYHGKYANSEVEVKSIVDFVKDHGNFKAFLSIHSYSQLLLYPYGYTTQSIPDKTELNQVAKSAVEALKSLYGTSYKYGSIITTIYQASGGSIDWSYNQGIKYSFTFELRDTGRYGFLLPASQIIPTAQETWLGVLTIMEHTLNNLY

| Structure (SMILES) | Ki (Carboxypeptidase B) [µM] | Ki (Carboxypeptidase A1) [µM] |
| --- | --- | --- |
| O=C(O)CCNC(=O)[C@@H]1CC[C@@H]1NC(=O)OCc1ccccc1 | 43 | 70 |
| COC(=O)CCCCNC(=O)[C@H]1CC[C@H]1NC(=O)OCc1ccccc1 | 410 | 72.5 |
| COC(=O)CNC(=O)[C@@H]1CC[C@@H]1NC(=O)OCc1ccccc1 | 500 | 550 |
| COC(=O)[C@H]1CC[C@H]1NC(=O)[C@H]1CC[C@H]1NC(=O)OCc1ccccc1 | 70 | 67 |

The remaining compounds from weak to strong by Ki (Carboxypeptidase B), led by results:

| Ki (Carboxypeptidase B) [µM] | Ki (Carboxypeptidase A1) [µM] | Structure (SMILES) |
| --- | --- | --- |
| 400 | 180 | COC(=O)CCNC(=O)[C@@H]1CC[C@@H]1NC(=O)OCc1ccccc1 |
| 275 | 95 | COC(=O)[C@@H]1CC[C@@H]1NC(=O)[C@@H]1CC[C@@H]1NC(=O)OCc1ccccc1 |
